Assay [1] deals with Chinese hamster ovary (CHO) cells. The experiment in a line: Protein synthesis assay (puromycin incorporation, western blot). It is filed as cell-based. The settings on record: 2 hours, media alone = 100%; for activity at 1 µM: Cricetulus griseus, unstressed CHO cells (without Tg), 1 μM test compound, read-out: % Protein synthesis relative to untreated (1 μM test compound); for % Recovery of protein synthesis (1 μM test compound): stressed CHO cells, 300 nM Tg plus 1 μM test compound, Tg alone = 0%. On the procedure:
Chinese hamster ovary (CHO) cells were maintained at 37° C. and 5% CO2 in Dulbecco's Modified Eagle's Media (DMEM) supplemented with 10% fetal bovine serum, 2 mM L-glutamine, 100 U/ml penicillin, and 100 μg/ml streptomycin. After reaching 80% of confluence, cells were detached and seeded on 6 well plates in complete media, allowed to recover overnight and treated for 2 hours with 1 μM of the test compound (to assess protein synthesis levels in unstressed condition), or for 2 hours with 300 nM Tg in the presence of 1 μM of the test compound (to assess the recovery of protein synthesis in a stressed condition). Cells with Tg alone were used as controls.
After the 2 hours treatments, media were replaced by adding 10 μg/ml puromycin (Sigma Aldrich #P8833) in complete media for 30 min. Media were removed and cells were lysed with SDS-PAGE lysis buffer. Lysates were transferred to 1.5 ml tubes and sonicated for 3 min and total protein amount were quantified using BCA Protein Assay Kit (Pierce). Equal amount of protein (30 μg) was loaded on SDS-PAGE gels. Proteins were transferred onto […] PVDF membranes (BioRad) and probed with primary antibodies diluted in Tris-buffered saline supplemented with 0.1% Tween 20 (Merck #S6996184 505) and 3% bovine serum albumin (Rockland #BSA-50).
Puromycin (12D10) (Merck #MABE343) and j-actin (Sigma Aldrich #A5441) antibodies were used as primary antibody. A HRP-conjugated secondary antibody (Rockland) was employed to detect immune-reactive bands using enhanced chemiluminescence (ECL Western Blotting Substrate, Pierce). Quantification of protein bands was done by densitometry using ImageJ software.
Percent increase of protein synthesis in unstressed cells (without Tg treatment) in the presence of media alone or certain test compounds is shown in Table 3. The percentage levels were normalized to the media alone condition, which correspond to 100% protein synthesis.
Percent recovery of protein synthesis in stressed cells (with Tg treatment) due to the test compounds at 1 μM is also shown in Table 3. The levels were normalized to the media alone and Tg alone conditions, which correspond to 100% and 0% respectively.
Background: A western blot detects proteins with antibodies after separation by electrophoresis.

Assay [2] concerns ATF4 expression, HEK293T cells carrying the ATF4 luciferase reporter. The experiment in a line: ATF4 expression inhibition assay (ATF4 luciferase reporter). The class given is cell-based. The following applies: Homo sapiens, HEK-293T, 100 nM thapsigargin, 3 hours. On the procedure: The ATF4 reporter was prepared by fusing the human full length 5′UTR of ATF4 (NCBI Accession No. BC022088.2) upstream of the firefly luciferase coding sequence lacking the initiator methionine. The fused sequence was cloned into pLenti-EFla-C-Myc-DDK-IRES-Puro cloning vector (Origen #PS100085) using standard methods. Virus production was carried out by using Lenti-X™ Packaging Single Shots Protocol (Clonetech #631276). Viral particles were used to transduce HEK293T cells (ATCC #CRL-3216, ATCC Manassas, Va.), which were subsequently selected with puromycin to generate stable cell line. Cells were maintained at 37° C. and 5% CO2 in DMEM-F12 (Hyclone #SH30023.02) supplemented with 10% heat-inactivated fetal bovine serum (Gibco #16000-044), 2 mM L-glutamine (Gibco #25030-081), 100 U/ml penicillin, and 100 μg/ml streptomycin (Gibco #^15140-122).
HEK293T cells carrying the ATF4 luciferase reporter were plated on 96-well plates (Nunc) at 10,000 cells per well. Cells were treated two days after seeding with 100 nM thapsigargin (Tg) (Sigma-Aldrich #T9033) in the presence of different concentrations of selected compounds ranging from 1 nM to 10 μM. Cells without treatment or cells treated with Tg alone were used as controls. Assay plates containing cells were incubated for 3 hours at 37° C.
Luciferase reactions were performed using Luciferase Assay System (Promega #E1501) as specified by the manufacturer. Luminescence was read with an integration time of 1 s and a gain of 110 using a Cytation-5 multi-mode microplate reader (BioTek). Relative luminescence units were normalized to Tg treatment (0% inhibition) and untreated cells (100% inhibition) and the percentage of ATF4 inhibition was calculated.
Accordingly, inhibition of ATF4 expression as a result of the test compound indicates suppression of the ISR pathway.
(Reporter assays use an easily measured gene product as a stand-in for the process of interest.)

Bounds are passed on as bounds.

As usually defined, the IC50 is the point on the concentration scale where inhibition reaches its midpoint. Low readings indicate greater potency, high ones weaker potency.

On to `O=C(COc1ccc(Cl)c(F)c1)N[C@H]1CC[C@H](CNC(=O)c2ccc(C(F)(F)F)cn2)CC1` [Compound 20, trans-N-((4-(2-(4-chloro-3-fluorophenoxy)acetamido)cyclohexyl)methyl)-5-(trifluoromethyl)picolinamide], for which, in assay [1], the activity at 1 µM was determined as 75.6% and the “% Recovery of protein synthesis (1 μM test compound)” value (shortened to “% Recovery of protein synthesis”) was 34.8%. In assay [2], half-maximal inhibition (IC50) required 2.43 nM.

`O=C(COc1ccc(Cl)c(F)c1)N[C@H]1CC[C@H](CNC(=O)c2cnc(C(F)F)cn2)CC1` [Compound 21, trans-N-((4-(2-(4-chloro-3-fluorophenoxy)acetamido)cyclohexyl)methyl)-5-(difluoromethyl)pyrazine-2-carboxamide]: in assay [1], the activity at 1 µM was 67.8% and the “% Recovery of protein synthesis” value is on record as 11.4%. Also, in assay [2], the IC50 worked out at 17.8 nM.

As for `O=C(COc1ccc(Cl)c(F)c1)N[C@H]1CC[C@H](CNC(=O)c2cccc(Cl)c2)CC1` [Compound 22, trans-3-chloro-N-((4-(2-(4-chloro-3-fluorophenoxy)acetamido)cyclohexyl)methyl)benzamide], in assay [1], the activity at 1 µM is 83.3% and the “% Recovery of protein synthesis” value is recorded as 54.6%. This compound also registered an IC50 in assay [2] of 10.9 nM.

On to `O=C(COc1ccc(Cl)c(F)c1)N[C@H]1CC[C@H](CNC(=O)c2ccc(Cl)c(F)c2)CC1` [Compound 23, trans-4-chloro-N-((4-(2-(4-chloro-3-fluorophenoxy)acetamido)cyclohexyl)methyl)-3-fluorobenzamide], for which, in assay [1], the activity at 1 µM was 93% and the “% Recovery of protein synthesis” value came to 74.1%. Besides, the IC50 in assay [2] is 1.27 nM.

`O=C(COc1ccc(Cl)c(F)c1)N[C@H]1CC[C@H](CNC(=O)c2ccc3ccc(Cl)cc3n2)CC1` [Compound 24, trans-7-chloro-N-((4-(2-(4-chloro-3-fluorophenoxy)acetamido)cyclohexyl)methyl)quinoline-2-carboxamide]: in assay [1], the activity at 1 µM amounted to 138% and the “% Recovery of protein synthesis” value was determined as 49.1%. Moreover, the IC50 in assay [2] was over 1000 nM.

`O=C(N[C@H]1CC[C@H](CNC(=O)c2cc3cc(Cl)ccc3o2)CC1)c1ccc2cc(Cl)ccc2n1` [Compound 25, trans-6-chloro-N-(4-((5-chlorobenzofuran-2-carboxamido)methyl)cyclohexyl)quinoline-2-carboxamide]: in assay [1], the activity at 1 µM came to 266% and the “% Recovery of protein synthesis” value was 223.3%. For the same compound, it took 1.56 nM to reach half-maximal inhibition in assay [2] (IC50).

In the case of `O=C(NC[C@H]1CC[C@H](NC(=O)c2cc3cc(Cl)ccc3o2)CC1)c1cc2cc(Cl)ccc2o1` [Compound 26, trans-5-chloro-N-((4-(5-chlorobenzofuran-2-carboxamido)cyclohexyl)methyl)benzofuran-2-carboxamide], in assay [1], the activity at 1 µM was 173% and the “% Recovery of protein synthesis” value turned out to be 113.4%. In addition, the IC50 in assay [2] came to 0.6 nM.

With `O=C(NC[C@H]1CC[C@H](NCCOc2ccc(Cl)c(F)c2)CC1)c1cc2cc(Cl)ccc2o1` [Compound 27, trans-5-chloro-N-((4-((2-(4-chloro-3-fluorophenoxy)ethyl)amino)cyclohexyl)methyl)benzofuran-2-carboxamide], in assay [1], the activity at 1 µM stood at 126% and the “% Recovery of protein synthesis” value worked out at 38.1%. The compound further yielded an IC50 in assay [2] of under 1000 nM.

Consider `O=C(NC[C@H]1CC[C@H](NC(=O)COc2ccc(Cl)c(F)c2)CC1)Nc1ccc(Cl)cc1` [Compound 28, trans-2-(4-chloro-3-fluorophenoxy)-N-(4-((3-(4-chlorophenyl)ureido)methyl)cyclohexyl)acetamide], for which, in assay [1], the activity at 1 µM came out at 68% and the “% Recovery of protein synthesis” value was 28.6%. The compound further registered a half-inhibitory concentration (IC50) in assay [2] of 3.1 nM.

Consider `O=C(Cc1ccc(Cl)cc1)NC[C@H]1CC[C@H](NC(=O)COc2ccc(Cl)c(F)c2)CC1` [Compound 29, trans-2-(4-chloro-3-fluorophenoxy)-N-(4-((2-(4-chlorophenyl)acetamido)methyl)cyclohexyl)acetamide], for which, in assay [1], the activity at 1 µM came to 70.9% and the “% Recovery of protein synthesis” value was 1.3%. In addition, in assay [2], half-maximal inhibition (IC50) was put at 12.5 nM.

Take `O=C(COc1cccc(Cl)c1)NC[C@H]1CC[C@H](NC(=O)COc2ccc(Cl)c(F)c2)CC1` [Compound 30, trans-2-(4-chloro-3-fluorophenoxy)-N-(4-((2-(3-chlorophenoxy)acetamido)methyl)cyclohexyl)acetamide]: in assay [1], the activity at 1 µM is 110% and the “% Recovery of protein synthesis” value is reported as 0.4%. Further, the IC50 in assay [2] is under 1000 nM.

As for `CC(C)(C(=O)NC[C@H]1CC[C@H](NC(=O)COc2ccc(Cl)cc2)CC1)c1ccc(Cl)cc1` [Compound 31, trans-N-((4-(2-(4-chlorophenoxy)acetamido)cyclohexyl)methyl)-2-(4-chlorophenyl)-2-methylpropanamide], in assay [1], the activity at 1 µM amounted to 120% and the “% Recovery of protein synthesis” value is listed as 66.2%. Also, the IC50 in assay [2] was under 1000 nM.

Consider `CC(C)(C(=O)NC[C@H]1CC[C@H](NC(=O)COc2ccc(Cl)c(F)c2)CC1)c1ccc(Cl)cc1` [Compound 32, trans-N-((4-(2-(4-chloro-3-fluorophenoxy)acetamido)cyclohexyl)methyl)-2-(4-chlorophenyl)-2-methylpropanamide], for which, in assay [1], the activity at 1 µM is 162% and the “% Recovery of protein synthesis” value was 69.7%. This compound also gave an IC50 in assay [2] of over 1000 nM.

Take `O=C(COc1ccc(Cl)cc1)N[C@H]1CC[C@H](CNC2CCc3cc(Cl)ccc3C2)CC1` (stereo partly drawn) [Compound 33, trans-N-(4-(((6-chloro-1,2,3,4-tetrahydronaphthalen-2-yl)amino)methyl)cyclohexyl)-2-(4-chlorophenoxy)acetamide]: the activity at 1 µM in assay [1] came to 599%. In addition, the IC50 in assay [2] was over 1000 nM.

`O=C(COc1ccc(Cl)cc1)N[C@H]1CC[C@H](NC(=O)C2COc3ccc(Cl)cc3N2)CC1` (stereo partly drawn) [Compound 34, trans-6-chloro-N-(4-(2-(4-chlorophenoxy)acetamido)cyclohexyl)-3,4-dihydro-2H-benzo[b][1,4]oxazine-3-carboxamide]: in assay [1], the activity at 1 µM turned out to be 137% and the “% Recovery of protein synthesis” value was found to be 105.2%. For the same compound, the IC50 in assay [2] was over 1000 nM.

As for `CN1CC(C(=O)N[C@H]2CC[C@H](NC(=O)COc3ccc(Cl)cc3)CC2)Oc2ccc(Cl)cc21` (stereo partly drawn) [Compound 83, trans-6-chloro-N-(4-(2-(4-chlorophenoxy)acetamido)cyclohexyl)-4-methyl-3,4-dihydro-2H-benzo[b][1,4]oxazine-2-carboxamide], in assay [1], the activity at 1 µM worked out at 148% and the “% Recovery of protein synthesis” value amounted to 98.4%. It took 19.3 nM to reach half-maximal inhibition in assay [2] (IC50).

Regarding `O=C(Cc1ccc(Cl)cc1)NC[C@H]1CC[C@H](NC(=O)COc2ccc(Cl)cc2)CC1` [Compound 84, trans-2-(4-chlorophenoxy)-N-(4-((2-(4-chlorophenyl)acetamido)methyl)cyclohexyl)acetamide], in assay [1], the activity at 1 µM was 135% and the “% Recovery of protein synthesis” value is 35.0%. 18.3 nM corresponded to half-maximal inhibition in assay [2] (IC50).

Values taken from patent US20210317102A1, “INHIBITORS OF INTEGRATED STRESS RESPONSE PATHWAY” (Praxis Biotech LLC, priority 2019, published 2021).
